Test results published in patent US20100267561A1, “HERBICIDAL PYRIDAZINONE DERIVATIVES” (priority 2007, published 2010).

What was measured:
Assay type in all cases: in vivo
[1] = test system: rice (Oryza sativa); test: Test B flooded paddy test plant response
How it was run: (§1)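 Compounds were added directly to paddy water over 2-leaf-stage plants in pots flooded 3 cm above soil, water depth maintained. Visual injury scored against controls after 13 to 15 days in greenhouse, 0 (none) to 100 (complete control); dash indicates no result.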

[2] = test system: barnyardgrass (Echinochloa crus-galli); test: Test B flooded paddy test plant response
How it was run: as §1

[3] = test system: common (oilseed) sunflower (Helianthus annuus); test: Test B pre-/postemergence plant response; conditions: Preemergence
How it was run: (§2)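 Visual scoring from 0 (no effect) to 100 (complete control) against untreated controls was done 13 to 15 days after greenhouse treatment. Chemicals were formulated in a surfactant-containing non-phytotoxic solvent and applied to soil preemergence or to 1- to 4-leaf (2-18 cm) plants postemergence.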

[4] = test system: blackgrass (Alopecurus myosuroides); test: Test B pre-/postemergence plant response; conditions: for Blackgrass plant response rating: 8 g ai/ha
How it was run: as §2

[5] = test system: downy bromegrass (Bromus tectorum); test: Test B pre-/postemergence plant response; conditions: for Bromegrass, Downy plant response rating: 8 g ai/ha
How it was run: as §2

[6] = test system: wild oat (Avena fatua); test: Test B pre-/postemergence plant response; conditions: for Oat, Wild plant response rating: 8 g ai/ha
How it was run: as §2

[7] = test system: morningglory (Ipomoea coccinea); test: Test B pre-/postemergence plant response; conditions: for Morningglory plant response rating: 8 g ai/ha
How it was run: as §2

[8] = test system: large crabgrass (Digitaria sanguinalis); test: Test B pre-/postemergence plant response; conditions: for Crabgrass, Large plant response rating: 8 g ai/ha
How it was run: as §2

[9] = test system: johnsongrass (Sorghum halepense); test: Test B pre-/postemergence plant response; conditions: for Johnsongrass plant response rating: 8 g ai/ha
How it was run: as §2

[10] = test system: pigweed (Amaranthus retroflexus); test: Test B pre-/postemergence plant response; conditions: for Pigweed plant response rating: 8 g ai/ha
How it was run: as §2

[11] = test system: common ragweed (Ambrosia elation); test: Test B pre-/postemergence plant response; conditions: for Ragweed plant response rating: 8 g ai/ha
How it was run: as §2

[12] = test system: Italian ryegrass (Lolium multiflorum); test: Test B pre-/postemergence plant response; conditions: for Ryegrass, Italian plant response rating: 8 g ai/ha
How it was run: as §2

[13] = test system: catchweed bedstraw (Galium aparine); test: Test B pre-/postemergence plant response; conditions: Preemergence
How it was run: as §2

[14] = test system: eastern black (E.B.) nightshade (Solanum ptycanthum); test: Test B pre-/postemergence plant response; conditions: Preemergence
How it was run: as §2

[15] = Flood (flooded paddy test), 62 g ai/ha, scale 0 to 100, 0 no effect, 100 complete control
[16] = Flood (flooded paddy test), 125 g ai/ha, scale 0 to 100, 0 no effect, 100 complete control
[17] = Flood (flooded paddy test), 250 g ai/ha, scale 0 to 100, 0 no effect, 100 complete control
[18] = Flood, 31 g ai/ha, scale 0 to 100
[19] = 16 g ai/ha, scale 0 to 100 (0 no effect, 100 complete control)
[20] = 31 g ai/ha, 0 to 100 scale, 0 no effect, 100 complete control
[21] = Postemergence, 16 g ai/ha, scale 0 to 100
[22] = Postemergence, 31 g ai/ha, scale 0 to 100, 0 no effect, 100 complete control
[23] = Postemergence, 62 g ai/ha, scale 0 to 100, 0 no effect, 100 complete control
[24] = Preemergence, 16 g ai/ha, scale 0 to 100 (0 no effect, 100 complete control)
[25] = Preemergence, 31 g ai/ha, 0 to 100 scale, 0 no effect, 100 complete control
[26] = Preemergence, 62 g ai/ha, scale 0 to 100

Cc1cc(-c2ccc(Cl)cc2)nn1-c1c(OC(=O)C(C)C)cnn(C)c1=O [Compound 34]
Plant response rating, Rice [1, 15]: 40
Plant response rating, Rice [1, 16]: 70
Plant response rating, Rice [1, 17]: 80
Plant response rating, Rice [1, 18]: 0
Plant response rating, Barnyardgrass [2, 15]: 50
Plant response rating, Barnyardgrass [2, 16]: 100
Plant response rating, Barnyardgrass [2, 17]: 100
Plant response rating, Barnyardgrass [2, 18]: 40
Plant response rating, Sunflower [3, 19]: 0
Plant response rating, Sunflower [3, 20]: 0
Plant response rating, Sunflower ([3]; 62 g ai/ha, scale 0 to 100): 0
Sunflower plant response rating ([3]; 8 g ai/ha, scale 0 to 100): 0
Blackgrass plant response rating ([4]; postemergence, 0-100 scale): 0
Plant response rating, Blackgrass [4, 21]: 75
Plant response rating, Blackgrass [4, 22]: 75
Plant response rating, Blackgrass [4, 23]: 90
Plant response rating, Blackgrass [4, 24]: 85
Plant response rating, Blackgrass [4, 25]: 100
Plant response rating, Blackgrass [4, 26]: 100
Blackgrass plant response rating ([4]; Preemergence, scale 0 to 100): 0
Bromegrass, Downy plant response rating ([5]; postemergence, 0-100 scale): 20
Plant response rating, Bromegrass, Downy [5, 21]: 50
Plant response rating, Bromegrass, Downy [5, 22]: 50
Plant response rating, Bromegrass, Downy [5, 23]: 80
Plant response rating, Bromegrass, Downy [5, 24]: 55
Plant response rating, Bromegrass, Downy [5, 25]: 55
Plant response rating, Bromegrass, Downy [5, 26]: 80
Bromegrass, Downy plant response rating ([5]; Preemergence, scale 0 to 100): 0
Oat, Wild plant response rating ([6]; postemergence, 0-100 scale): 70
Plant response rating, Oat, Wild [6, 21]: 90
Plant response rating, Oat, Wild [6, 22]: 95
Plant response rating, Oat, Wild [6, 23]: 100
Plant response rating, Oat, Wild [6, 25]: 85
Plant response rating, Oat, Wild [6, 26]: 90
Oat, Wild plant response rating ([6]; Preemergence, scale 0 to 100): 40
Morningglory plant response rating ([7]; postemergence, 0-100 scale): 0
Plant response rating, Morningglory [7, 21]: 0
Plant response rating, Morningglory [7, 22]: 0
Plant response rating, Morningglory [7, 23]: 0
Plant response rating, Morningglory [7, 24]: 0
Plant response rating, Morningglory [7, 25]: 0
Plant response rating, Morningglory [7, 26]: 0
Morningglory plant response rating ([7]; Preemergence, scale 0 to 100): 0
Crabgrass, Large plant response rating ([8]; postemergence, 0-100 scale): 70
Plant response rating, Crabgrass, Large [8, 21]: 80
Plant response rating, Crabgrass, Large [8, 22]: 95
Plant response rating, Crabgrass, Large [8, 23]: 100
Plant response rating, Crabgrass, Large [8, 24]: 100
Plant response rating, Crabgrass, Large [8, 25]: 100
Plant response rating, Crabgrass, Large [8, 26]: 100
Crabgrass, Large plant response rating ([8]; Preemergence, scale 0 to 100): 100
Johnsongrass plant response rating ([9]; postemergence, 0-100 scale): 75
Plant response rating, Johnsongrass [9, 21]: 95
Plant response rating, Johnsongrass [9, 22]: 98
Plant response rating, Johnsongrass [9, 23]: 100
Plant response rating, Johnsongrass [9, 24]: 95
Plant response rating, Johnsongrass [9, 25]: 100
Plant response rating, Johnsongrass [9, 26]: 100
Johnsongrass plant response rating ([9]; Preemergence, scale 0 to 100): 65
Pigweed plant response rating ([10]; postemergence, 0-100 scale): 0
Plant response rating, Pigweed [10, 21]: 0
Plant response rating, Pigweed [10, 22]: 0
Plant response rating, Pigweed [10, 23]: 0
Plant response rating, Pigweed [10, 24]: 0
Plant response rating, Pigweed [10, 25]: 0
Plant response rating, Pigweed [10, 26]: 0
Pigweed plant response rating ([10]; Preemergence, scale 0 to 100): 0
Ragweed plant response rating ([11]; postemergence, 0-100 scale): 0
Plant response rating, Ragweed [11, 21]: 0
Plant response rating, Ragweed [11, 22]: 0
Plant response rating, Ragweed [11, 23]: 0
Plant response rating, Ragweed [11, 24]: 0
Plant response rating, Ragweed [11, 25]: 0
Plant response rating, Ragweed [11, 26]: 0
Ragweed plant response rating ([11]; Preemergence, scale 0 to 100): 0
Ryegrass, Italian plant response rating ([12]; postemergence, 0-100 scale): 70
Plant response rating, Ryegrass, Italian [12, 21]: 85
Plant response rating, Ryegrass, Italian [12, 22]: 95
Plant response rating, Ryegrass, Italian [12, 23]: 100
Plant response rating, Ryegrass, Italian [12, 24]: 100
Plant response rating, Ryegrass, Italian [12, 25]: 100
Plant response rating, Ryegrass, Italian [12, 26]: 100
Ryegrass, Italian plant response rating ([12]; Preemergence, scale 0 to 100): 100
Plant response rating, Galium [13, 19]: 0
Plant response rating, Galium [13, 20]: 0
Plant response rating, Galium ([13]; 62 g ai/ha, scale 0 to 100): 0
Galium plant response rating ([13]; 8 g ai/ha, scale 0 to 100): 0
Plant response rating, Nightshade, E. B. [14, 19]: 0
Plant response rating, Nightshade, E. B. [14, 20]: 0
Plant response rating, Nightshade, E. B. ([14]; 62 g ai/ha, scale 0 to 100): 0
Nightshade, E. B. plant response rating ([14]; 8 g ai/ha, scale 0 to 100): 0
